Results: patent US20110195929A1, “COMPOUNDS FOR THE TREATMENT OF FLAVIVIRAL INFECTIONS” (SUMMIT CORPORATION PLC, priority 2008, published 2011)
Like-named read-outs stand apart in the source and are kept apart here.

How the values were obtained:
α-D-glucosidase [1] = molecular target: T1, α-D-glucosidase (Saccharomyces cerevisiae, UniProt P53341); assay: Glycosidase inhibition: α-D-glucosidase (yeast); format: biochemical, Saccharomyces cerevisiae (Baker's yeast); conditions: 1 mg/ml; pH 6.0, 20° C
T1 construct: purchased Sigma
Experimental: (§1) Inhibition of the N-linked glycan trimming enzymes alpha-Glucosidases I and II or alpha-Mannosidases I and II are thought to be related to the anti-viral activity of castanospermine (Compound 104) and 1-deoxynojirimycin (Compound 193). […] All enzymes were purchased from Sigma, as were the appropriate p-nitrophenyl substrates. Assays were carried out in microtitre plates. Enzymes were assayed in 0.1M citric acid/0.2M di-sodium hydrogen phosphate (McIlvaine) buffers at the optimum pH for the enzyme. All assays were carried out at 20° C. For screening assays the incubation assay consisted of 10 μl of enzyme solution, 10 μl of inhibitor solution (made up in water at 5 mM) and 50 μl of the appropriate 5 mM p-nitrophenyl substrate (3.57 mM final conc.) made up in McIlvaine buffer at the optimum pH for the enzyme.
(§2) The reactions were stopped with 0.4M glycine (pH 10.4) during the exponential phase of the reaction, which was determined at the beginning of the assay using blanks with water, which were incubated for a range of time periods to measure the reaction rate using 5 mM substrate solution. Endpoint absorbances were read at 405 nm with a Bio-rad microtitre plate reader (Benchmark). Water was substituted for the inhibitors in the blanks.

α-D-glucosidase [2] = assay: Glycosidase inhibition: α-D-glucosidase (Bacillus); format: biochemical, Bacillus stearothermophilus; conditions: 1 mg/ml; pH 6.0, 20° C
Experimental: as §1, §2

α-D-glucosidase [3] = molecular target: T2, α-D-glucosidase (Oryza sativa subsp. japonica, UniProt Q653V7); assay: Glycosidase inhibition: α-D-glucosidase (rice); format: biochemical, rice (Oryza sativa); conditions: 1 mg/ml; pH 6.0, 20° C
T2 construct: purchased Sigma
Experimental: as §1, §2

α-D-mannosidase = molecular target: T3, α-D-mannosidase (Canavalia ensiformis, UniProt C0HJB3); assay: Glycosidase inhibition: α-D-mannosidase; format: biochemical, Jack beans (Canavalia ensiformis); conditions: 1 mg/ml; pH 4.5, 20° C
T3 construct: purchased Sigma
T3 sequence (C0HJB3 1-981): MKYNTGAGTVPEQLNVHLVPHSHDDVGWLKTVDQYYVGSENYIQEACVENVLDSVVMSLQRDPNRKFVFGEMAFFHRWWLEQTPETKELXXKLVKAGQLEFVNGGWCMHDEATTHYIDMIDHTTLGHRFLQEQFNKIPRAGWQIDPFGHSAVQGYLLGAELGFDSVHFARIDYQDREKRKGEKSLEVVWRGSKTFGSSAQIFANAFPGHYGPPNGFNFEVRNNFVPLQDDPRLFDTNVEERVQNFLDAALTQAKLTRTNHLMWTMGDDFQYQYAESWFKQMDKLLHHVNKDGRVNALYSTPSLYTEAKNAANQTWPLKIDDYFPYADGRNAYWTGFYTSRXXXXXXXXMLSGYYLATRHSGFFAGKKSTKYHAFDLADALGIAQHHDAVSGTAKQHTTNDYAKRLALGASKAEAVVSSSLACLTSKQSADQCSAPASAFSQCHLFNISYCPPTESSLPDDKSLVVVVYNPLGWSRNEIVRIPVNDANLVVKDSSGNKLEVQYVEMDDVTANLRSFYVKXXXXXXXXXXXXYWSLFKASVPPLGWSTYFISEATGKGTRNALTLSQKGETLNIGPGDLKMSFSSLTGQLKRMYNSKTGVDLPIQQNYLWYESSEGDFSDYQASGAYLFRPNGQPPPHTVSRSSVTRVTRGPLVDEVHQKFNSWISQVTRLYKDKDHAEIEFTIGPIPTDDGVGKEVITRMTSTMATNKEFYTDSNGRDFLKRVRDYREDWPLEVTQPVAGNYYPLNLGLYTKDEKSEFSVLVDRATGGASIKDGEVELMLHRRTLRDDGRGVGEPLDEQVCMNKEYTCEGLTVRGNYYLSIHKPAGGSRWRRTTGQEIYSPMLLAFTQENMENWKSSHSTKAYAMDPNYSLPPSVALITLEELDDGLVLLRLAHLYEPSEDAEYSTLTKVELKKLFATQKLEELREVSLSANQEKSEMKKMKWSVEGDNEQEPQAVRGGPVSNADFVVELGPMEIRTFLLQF
Experimental: as §1, §2

β-D-glucosidase = assay: Glycosidase inhibition: β-D-glucosidase; format: biochemical, Almonds (Prunus sp.); conditions: 1 mg/ml; pH 5.0, 20° C
Experimental: as §1, §2

Naringinase = assay: Glycosidase inhibition: Naringinase; format: biochemical, Penecillium decumbens; conditions: 1 mg/ml; pH 4.0, 20° C
Experimental: as §1, §2

α-D-galactosidase = molecular target: T4, α-D-galactosidase (Coffea arabica, UniProt Q42656); assay: Glycosidase inhibition: α-D-galactosidase; format: biochemical, Green coffee beans (Coffea sp.); conditions: 1 mg/ml; pH 6.5, 20° C
T4 construct: purchased Sigma
Experimental: as §1, §2

β-D-galactosidase = assay: Glycosidase inhibition: β-D-galactosidase; format: biochemical, Bovine liver; conditions: 1 mg/ml; pH 7.3, 20° C
Experimental: as §1, §2

α-L-fucosidase = molecular target: T5, α-L-fucosidase (Bos taurus, UniProt Q2KIM0); assay: Glycosidase inhibition: α-L-fucosidase; format: biochemical, Bovine kidney; conditions: 1 mg/ml; pH 5.5, 20° C
T5 construct: purchased Sigma; host or cells: bovine kidney
T5 sequence (Q2KIM0 23-468): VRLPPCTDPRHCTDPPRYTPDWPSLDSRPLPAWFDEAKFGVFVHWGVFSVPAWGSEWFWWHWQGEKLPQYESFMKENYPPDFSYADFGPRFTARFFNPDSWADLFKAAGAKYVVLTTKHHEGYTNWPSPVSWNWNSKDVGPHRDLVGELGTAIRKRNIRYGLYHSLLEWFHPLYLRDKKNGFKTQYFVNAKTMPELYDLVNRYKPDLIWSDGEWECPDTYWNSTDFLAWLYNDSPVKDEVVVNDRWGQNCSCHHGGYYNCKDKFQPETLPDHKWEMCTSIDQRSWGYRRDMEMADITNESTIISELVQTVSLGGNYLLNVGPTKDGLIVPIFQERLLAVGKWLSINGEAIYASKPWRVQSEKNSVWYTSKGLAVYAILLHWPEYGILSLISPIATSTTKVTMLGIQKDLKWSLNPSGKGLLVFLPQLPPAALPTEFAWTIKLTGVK
Experimental: All enzymes were purchased from Sigma, as were the appropriate p-nitrophenyl substrates. Assays were carried out in microtitre plates. Enzymes were assayed in 0.1M citric acid/0.2M di-sodium hydrogen phosphate (McIlvaine) buffers at the optimum pH for the enzyme. All assays were carried out at 20° C. For screening assays the incubation assay consisted of 10 μl of enzyme solution, 10 μl of inhibitor solution (made up in water at 5 mM) and 50 μl of the appropriate 5 mM p-nitrophenyl substrate (3.57 mM final conc.) made up in McIlvaine buffer at the optimum pH for the enzyme.
as §2

[4] = tested on: N-acetyl-β-D-glucosaminidase; assay: Glycosidase inhibition: N-acetyl-β-D-glucosaminidase; format: biochemical, Bovine kidney; conditions: 1 mg/ml; pH 4.25, 20° C
Experimental: as §1, §2

HCV = assay: Cell-based HCV infection NS3 protease FRET assay in DMSO-Huh7 cells; design: species or system hepatitis C virus (HCV)
[5] = DMSO-Huh7 cells infected with HCV at 0.05 ffu/cell, HCV NS3 protein levels by FRET, day 6 p.i.

T2 sequence (Q653V7 34-885): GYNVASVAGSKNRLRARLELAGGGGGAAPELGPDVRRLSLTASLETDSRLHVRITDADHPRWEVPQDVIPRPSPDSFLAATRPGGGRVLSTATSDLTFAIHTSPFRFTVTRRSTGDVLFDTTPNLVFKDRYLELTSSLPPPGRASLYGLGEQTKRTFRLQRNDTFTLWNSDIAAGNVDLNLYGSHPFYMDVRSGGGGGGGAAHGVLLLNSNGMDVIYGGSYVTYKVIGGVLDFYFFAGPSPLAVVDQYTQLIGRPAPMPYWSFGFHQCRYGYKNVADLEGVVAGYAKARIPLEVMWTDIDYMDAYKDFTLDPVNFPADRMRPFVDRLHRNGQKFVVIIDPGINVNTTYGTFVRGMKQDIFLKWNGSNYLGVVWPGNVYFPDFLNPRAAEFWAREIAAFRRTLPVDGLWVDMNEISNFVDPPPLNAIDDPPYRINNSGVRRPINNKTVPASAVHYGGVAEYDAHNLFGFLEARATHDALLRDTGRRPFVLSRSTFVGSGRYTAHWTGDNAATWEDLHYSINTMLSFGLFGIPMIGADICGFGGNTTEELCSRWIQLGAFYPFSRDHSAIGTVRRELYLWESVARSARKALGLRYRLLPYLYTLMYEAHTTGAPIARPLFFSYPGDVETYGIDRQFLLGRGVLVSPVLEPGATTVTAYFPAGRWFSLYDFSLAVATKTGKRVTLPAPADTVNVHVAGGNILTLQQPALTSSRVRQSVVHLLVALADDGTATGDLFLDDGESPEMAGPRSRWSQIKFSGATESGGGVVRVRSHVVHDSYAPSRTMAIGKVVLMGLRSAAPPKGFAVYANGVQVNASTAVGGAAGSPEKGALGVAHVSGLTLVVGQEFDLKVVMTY
T1 sequence (P53341 whole entry): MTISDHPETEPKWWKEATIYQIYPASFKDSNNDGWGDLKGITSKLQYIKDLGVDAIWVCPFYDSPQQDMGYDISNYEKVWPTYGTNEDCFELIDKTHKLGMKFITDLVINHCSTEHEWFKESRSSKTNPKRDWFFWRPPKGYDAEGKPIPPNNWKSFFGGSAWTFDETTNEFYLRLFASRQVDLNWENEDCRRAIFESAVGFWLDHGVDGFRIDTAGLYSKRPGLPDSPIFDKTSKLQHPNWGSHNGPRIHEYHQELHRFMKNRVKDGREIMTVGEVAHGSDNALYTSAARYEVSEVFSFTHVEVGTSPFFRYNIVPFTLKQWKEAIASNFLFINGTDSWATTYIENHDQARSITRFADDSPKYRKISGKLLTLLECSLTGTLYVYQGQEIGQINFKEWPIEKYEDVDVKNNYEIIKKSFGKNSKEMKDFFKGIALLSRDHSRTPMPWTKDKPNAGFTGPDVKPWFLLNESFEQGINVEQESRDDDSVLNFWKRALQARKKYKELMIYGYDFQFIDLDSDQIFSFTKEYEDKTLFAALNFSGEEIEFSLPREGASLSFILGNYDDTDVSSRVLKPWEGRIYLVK
T4 sequence (Q42656 16-378): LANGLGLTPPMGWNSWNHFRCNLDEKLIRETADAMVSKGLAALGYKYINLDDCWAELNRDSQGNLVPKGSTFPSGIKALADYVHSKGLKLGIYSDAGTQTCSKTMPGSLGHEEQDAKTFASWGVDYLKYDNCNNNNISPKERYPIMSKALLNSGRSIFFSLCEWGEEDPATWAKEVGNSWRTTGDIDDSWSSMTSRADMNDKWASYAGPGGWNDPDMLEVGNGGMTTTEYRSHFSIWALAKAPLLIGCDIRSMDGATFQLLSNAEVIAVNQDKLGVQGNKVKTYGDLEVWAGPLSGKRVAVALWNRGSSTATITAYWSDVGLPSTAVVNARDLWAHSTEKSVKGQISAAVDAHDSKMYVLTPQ

Row | Compound | Ave % inhibition (HCV; [5]) | also measured
1 | OC[C@H]1NC[C@H](O)[C@@H](O)[C@@H]1O [Compound 193, 1-deoxynojirimycin, reference compound] | – | % inhibition α-gluc (yeast) (α-D-glucosidase [1]): 35%; % inhibition α-gluc (Bacillus) (α-D-glucosidase [2]): 100%; % inhibition α-gluc (rice) (α-D-glucosidase [3]): 100%; % inhibition α-mannosidase (α-D-mannosidase): 0%; % inhibition β-glucosidase (β-D-glucosidase): 64%; % inhibition Naringinase (Naringinase): 0%; % inhibition α-galactosidase (α-D-galactosidase): 0%; % inhibition β-galactosidase (β-D-galactosidase): 0%; % inhibition α-fucosidase (α-L-fucosidase): 0%; % inhibition N-acetyl-β-gluc [4]: 0%
2 | [N-]=[N+]=N[C@@H]1CN(CCO)[C@H](CO)[C@H]1O [Compound 721, (2R,3R,4R)-4-azido-1-(2-hydroxyethyl)-2-(hydroxymethyl)pyrrolidin-3-ol] | ++ (++: 20-39%) | –
3 | CCCCCCCCCN1C[C@@H](O)[C@@H](O)[C@H](NC(C)=O)C1 [Compound 731, N-((3R,4S,5R)-4,5-dihydroxy-1-nonylpiperidin-3-yl)acetamide] | ++ (++: 20-39%) | –
4 | CCCCCCCCCN1C[C@@H](O)[C@H](O)[C@H](O)[C@@H](O)C1 [Compound 736, (3R,4S,5R,6S)-1-nonylazepane-3,4,5,6-tetraol] | +++ (+++: 40-59%) | –
5 | OC1CN(Cc2ccc(-c3ccccc3)cc2)C1 [Compound 748, 1-(biphenyl-4-ylmethyl)azetidin-3-ol] | ++++ (++++: 60-79%) | –
6 | CCN1C[C@H](O)[C@@H](O)[C@H](O)[C@H]1CO [Compound 756, (2R,3R,4R,5S)-1-ethyl-2-(hydroxymethyl)piperidine-3,4,5-triol] | – | Ave % inhibition (HCV): + (+: ≦19%)
7 | O[C@H]1[C@H](O)[C@H](O)CN(Cc2ccc(-c3ccccc3)cc2)C[C@H]1O [Compound 762, (3R,4R,5R,6R)-1-(biphenyl-4-ylmethyl)azepane-3,4,5,6-tetraol] | +++ (+++: 40-59%) | –
8 | [N-]=[N+]=N[C@@H]1CN[C@@H](CO)C1 [Compound 767, ((2R,4S)-4-azidopyrrolidin-2-yl)methanol] | ++++ (++++: 60-79%) | –
9 | CCCCCCCCCN1C[C@H](O)[C@@H](O)[C@H](NC(C)=O)C1 [Compound 774, N-((3R,4S,5S)-4,5-dihydroxy-1-nonylpiperidin-3-yl)acetamide] | + (+: ≦19%) | –
10 | CCCCCCCCCN1C[C@H](O)C(NC(C)=O)[C@@H](O)C1 [Compound 777, N-((3S,5S)-3,5-dihydroxy-1-nonylpiperidin-4-yl)acetamide] | +++ (+++: 40-59%) | –
11 | CCCCCCCCCN1C[C@@H](O)[C@H](O)[C@@H](NC(C)=O)C1 [Compound 780, N-((3S,4R,5R)-4,5-dihydroxy-1-nonylpiperidin-3-yl)acetamide] | ++ (++: 20-39%) | –
12 | CCCCCCCCCN1C[C@@H](O)C(NC(C)=O)[C@H](O)C1 [Compound 783, N-((3R,5R)-3,5-dihydroxy-1-nonylpiperidin-4-yl)acetamide] | +++ (+++: 40-59%) | –
13 | CCCCCCCCCN1C[C@@H](O)[C@H](NC(C)=O)[C@@H](O)C1 [Compound 789, N-((3S,4r,5R)-3,5-dihydroxy-1-nonylpiperidin-4-yl)acetamide] | +++ (+++: 40-59%) | –
14 | CCCCCCCCCN1C[C@@H](O)[C@@H](O)[C@H](O)[C@H](O)C1 [Compound 794, (3R,4R,5R,6R)-1-nonylazepane-3,4,5,6-tetraol] | ++++ (++++: 60-79%) | –
15 | OC[C@@H](O)[C@@H]1[C@H](O)[C@H](O)CN1Cc1ccccc1 [Compound 799, (2R,3S,4R)-1-benzyl-2-((S)-1,2-dihydroxyethyl)pyrrolidine-3,4-diol] | + (+: ≦19%) | –
16 | (1S,2S,3S,6R,7R,7aR)-1,6,7-trihydroxy-3-(hydroxymethyl)hexahydro-1H-pyrrolizin-2-yl methanesulfonate [Compound 635] | ++ (++: 20-39%) | –
17 | (3R,5S)-5-(acetamidomethyl)-1-butylpyrrolidin-3-yl acetate [Compound 546] | ++ (++: 20-39%) | –
18 | (3R,5S)-5-(acetamidomethyl)-1-nonylpyrrolidin-3-yl acetate [Compound 547] | ++++ (++++: 60-79%) | –
19 | ((2S,4S)-4-acetamido-1-nonylpyrrolidin-2-yl)methyl acetate [Compound 332] | +++++ (+++++: ≧80%) | –
